# In ChEMBL document CHEMBL3351609, “Pyrrolopyridines-quinazolines Inhibitors of PKR-Like ER Kinase” (ACS Med Chem Lett, 2015):
# Legend:
# [1] = target: T1, Eukaryotic translation initiation factor 2-alpha kinase 3 (Homo sapiens, UniProt Q9NZJ5); assay: Inhibition of PERK (unknown origin) expressed in HEK293 cells assessed as inhibition of phosphorylation of GFP-eIF2 alpha by cell-based TR-FRET assay
# T1 sequence (Q9NZJ5 whole entry): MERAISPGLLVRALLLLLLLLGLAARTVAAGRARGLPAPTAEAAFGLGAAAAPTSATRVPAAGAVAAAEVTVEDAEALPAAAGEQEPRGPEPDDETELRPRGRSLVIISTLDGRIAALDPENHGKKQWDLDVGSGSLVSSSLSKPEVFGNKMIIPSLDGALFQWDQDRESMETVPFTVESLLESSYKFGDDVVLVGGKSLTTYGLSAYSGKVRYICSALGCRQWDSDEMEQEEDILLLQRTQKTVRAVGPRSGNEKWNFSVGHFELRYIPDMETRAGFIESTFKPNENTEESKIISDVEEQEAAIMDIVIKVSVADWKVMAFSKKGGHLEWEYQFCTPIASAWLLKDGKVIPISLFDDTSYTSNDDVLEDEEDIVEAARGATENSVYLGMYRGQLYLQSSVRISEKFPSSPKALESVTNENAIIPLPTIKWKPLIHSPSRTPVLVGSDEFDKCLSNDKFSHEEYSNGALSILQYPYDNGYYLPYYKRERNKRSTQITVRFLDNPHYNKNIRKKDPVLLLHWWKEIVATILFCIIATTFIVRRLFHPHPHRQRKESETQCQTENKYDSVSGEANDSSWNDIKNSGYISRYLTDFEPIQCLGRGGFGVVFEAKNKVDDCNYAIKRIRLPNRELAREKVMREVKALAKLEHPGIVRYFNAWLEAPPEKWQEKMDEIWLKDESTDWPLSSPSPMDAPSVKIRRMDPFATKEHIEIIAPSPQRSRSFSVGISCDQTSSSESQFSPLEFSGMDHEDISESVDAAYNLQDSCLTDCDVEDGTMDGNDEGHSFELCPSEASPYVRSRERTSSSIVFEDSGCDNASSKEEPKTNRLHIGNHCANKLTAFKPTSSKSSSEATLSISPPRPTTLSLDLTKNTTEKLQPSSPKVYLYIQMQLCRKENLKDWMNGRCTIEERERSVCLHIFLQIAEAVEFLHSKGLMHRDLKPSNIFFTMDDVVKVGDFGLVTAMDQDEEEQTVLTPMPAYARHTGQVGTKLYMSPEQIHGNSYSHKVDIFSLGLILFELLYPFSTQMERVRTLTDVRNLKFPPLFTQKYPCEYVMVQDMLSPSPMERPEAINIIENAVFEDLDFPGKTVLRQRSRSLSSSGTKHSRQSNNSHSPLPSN
# [2] = target: T1, Eukaryotic translation initiation factor 2-alpha kinase 3; assay: Inhibition of recombinant GST-tagged PERK (unknown origin) by LanthaScreen assay
IC50 [1] [µM],IC50 [2] [µM],Structure (SMILES)
0.0251,0.000631,COc1cc2ncnc(Nc3ccc4c(c3)CCN4C(=O)Cc3c(C)[nH]c4cc(F)ccc34)c2cc1OC
0.0501,0.000398,COc1cc2ncnc(Nc3ccc4c(c3)CCN4C(=O)Cc3cc(F)ccc3F)c2cc1OC

# Second part, the compound before the results:
Structure (SMILES),IC50 [1] [µM],IC50 [2] [µM]
COc1cc2ncnc(Nc3ccc4c(c3)CCN4C(=O)Cc3coc4ccccc34)c2cc1OC,> 31.6,–
COc1cc2ncnc(Nc3ccc4c(c3)CCN4C(=O)Cc3c[nH]c4ccccc34)c2cc1OC,0.501,0.00501
COc1cc2ncnc(Nc3ccc4c(c3)CCN4C(=O)Cn3ccc4ccccc43)c2cc1OC,0.316,–
